Where two headings read alike, the source gives them in different places.
Key:
[1] = system: Diabrotica balteata; test: Transovarial effects on Diabrotica balteata adults fed on sprayed bean plants (% egg mortality); assay type: in vivo; conditions: for mortality at 10 ppm / mortality at 25 ppm / mortality at 50 ppm: Diabrotica balteata
Description: The following IGRs in Table 1 were tested for their transovarial effects on Diabrotica balteata by observing percentage egg mortality.
Bean plants (Phaseolus vulgaris, var. Amata) were treated in an automatic spray chamber (ARO-1) with around 500 l/ha. After drying of the spray deposits, plants were placed in gauze cages and infested with newly hatched (0-24 h old) Diabrotica balteata adults. After seven days, treated plants were removed and replaced by non-treated plants. From day seven to day 38 eggs were collected in three-day intervals, counted and checked on number of hatched larvae (% egg mortality). Percentage egg mortality was calculated as the number of unhatched eggs per total number of eggs laid.

[2] = system: Spodoptera frugiperda; test: Foliar spray application on cotton, larval mortality of Spodoptera frugiperda; assay type: in vivo; conditions: 4 DAT (days after treatment)
Source text: For example on both Spodoptera frugiperda and Plutella xylostella similar activities were obtained for the same rates: […]

[3] = system: Colorado potato beetle; conditions: cited from earlier work
[4] = egg laying period 1, read-out: % egg mortality: on egg laying period 1
[5] = egg laying period 2, read-out: % egg mortality: on egg laying period 2
[6] = egg laying period 3, read-out: % egg mortality: on egg laying period 3
[7] = egg laying period 4, read-out: % egg mortality: on egg laying period 4
[8] = egg laying period 5, read-out: % egg mortality: on egg laying period 5
[9] = egg laying period 6, read-out: % egg mortality: on egg laying period 6
[10] = egg laying period 7, read-out: % egg mortality: on egg laying period 7
[11] = egg laying period 8, read-out: % egg mortality: on egg laying period 8
[12] = egg laying period 9, read-out: % egg mortality: on egg laying period 9
[13] = egg laying period 10, read-out: % egg mortality: on egg laying period 10
[14] = egg laying period 11, read-out: % egg mortality: on egg laying period 11
[15] = egg laying period 12, read-out: % egg mortality: on egg laying period 12

SMILES: O=C(NC(=O)c1c(F)cccc1F)Nc1ccc(OC(F)(F)C(F)OC(F)(F)F)c(Cl)c1 (single isomer, unassigned; (+)) [Rimon, (+)-I-[3-chloro-4-(1,1,2-trifluoro-2-trifluoromethoxyethoxy)phenyl]-3-(2,6-difluorobenzoyl)urea]
- total number of sterilised (unhatched) eggs, considered over the whole test period ([1]; 5 g AI ha^-1): ≈ 25%
- total number of sterilised (unhatched) eggs, considered over the whole test period ([1]; 12.5 g AI ha^-1): ≈ 25%
- total number of sterilised (unhatched) eggs, considered over the whole test period ([1]; 25 g AI ha^-1): ≈ 90%
- days of effect (egg hatch inhibition) after a single foliar treatment ([1]; 50 g AI/ha during adult feeding on the crop plant): up to 21 days
- mortality at 10 ppm [1, 4]: 100%
- mortality at 10 ppm [1, 5]: 100%
- mortality at 10 ppm [1, 6]: 99%
- mortality at 10 ppm [1, 7]: 50%
- mortality at 10 ppm [1, 8]: 10%
- mortality at 10 ppm [1, 9]: 13%
- mortality at 10 ppm [1, 10]: 10%
- mortality at 10 ppm [1, 11]: 11%
- mortality at 10 ppm [1, 12]: 18%
- mortality at 10 ppm [1, 13]: 9%
- mortality at 10 ppm [1, 14]: 9%
- mortality at 10 ppm [1, 15]: 12%
- mortality at 25 ppm [1, 4]: 100%
- mortality at 25 ppm [1, 5]: 100%
- mortality at 25 ppm [1, 6]: 100%
- mortality at 25 ppm [1, 7]: 93%
- mortality at 25 ppm [1, 9]: 25%
- mortality at 25 ppm [1, 10]: 14%
- mortality at 25 ppm [1, 12]: 22%
- mortality at 25 ppm [1, 13]: 7%
- mortality at 25 ppm [1, 14]: 0%
- mortality at 25 ppm [1, 15]: 4%
- mortality at 50 ppm [1, 5]: 100%
- mortality at 50 ppm [1, 6]: 100%
- mortality at 50 ppm [1, 7]: 100%
- mortality at 50 ppm [1, 8]: 100%
- mortality at 50 ppm [1, 9]: 100%
- mortality at 50 ppm [1, 10]: 100%
- mortality at 50 ppm [1, 11]: 100%
- mortality at 50 ppm [1, 12]: 92%
- mortality at 50 ppm [1, 13]: 29%
- mortality at 50 ppm [1, 14]: 96%
- mortality at 50 ppm [1, 15]: 41%
- Spray interval ([1]; Rate 5 g AI/ha): 7 days
- Spray interval ([1]; Rate 12.5 g AI/ha): 10 days
- Spray interval ([1]; Rate 25 g AI/ha): 21 days
- rank for transovarial activity on Diabrotica balteata ([1]; among the IGRs tested): by far the best compound
- Transovarial effects on treated adults of Diabrotica balteata ([1]; at the used dose rates): Transovarial effects can be observed
- LC50 [2]: LC50 = 1.1 ppm
- ability to economically stop egg hatching in Colorado potato beetle ([3]; 25 g AI ha^-1 (Cutler et al.)): insufficient
- viability of Colorado potato beetle eggs ([3]; adults feeding on novaluron-treated potato leaves, 87 g AI ha^-1 (Alyokhin et al.)): reduced viability
- time of feeding on untreated leaves after which the effect reverses ([3]; after 87 g AI ha^-1 (Alyokhin et al.)): 48 to 96 h

From patent publication US20150087622A1, “NEW METHOD OF USE OF A PESTICIDE” (SYNGENTA PARTICIPATIONS AG, priority 2012, published 2015)
